What was measured:
VGF and HBA2 loci = test: DRIP-qPCR R-loop accumulation at VGF and HBA2 loci (FIG. 10A); format: cell-based; conditions: MIA PaCa-2, 6+3 hours
Protocol: (§1) FIG. 10A illustrates the fold increase in the percent of input values in DRIP-qPCR for the VGF, HBA2, and SNRPN loci in MIA PaCa-2 cells treated with or without the combination or single agents. Genomic DNA was treated in vitro with or without RNaseH1 before immunoprecipitation using S9.6 antibody. Treatment was for 6+3 hours (i.e., 6-hour romidepsin followed by 3-hour washout with 2 nM DMPatA (combo) or without). Statistical significance was determined by 3-way ANOVA, ***p value<0.001. This experiment confirms the formation of R-loops at the investigated gene loci.
(§2) Romidepsin-induced histone hyperacetylation leads to the accumulation of R-loops that can increase genome instability. Because treatment of cells with the combination increased global transcription and led to persistence of histone hyperacetylation, it was postulated the treatment could similarly enhance the formation of R-loops and contribute to cell death. R-loop accumulation was further confirmed using DRIP-qPCR. […]
(§3) DRIP assay was performed according to the method previously described (Sanz L A, Chédin F. High-resolution, strand-specific R-loop mapping via S9. 6-based DNA-RNA immunoprecipitation and high-throughput sequencing. Nature protocols. 2019; 14(6):1734). […] Quantitative PCR was performed at the R-loop positive loci VGF and HBA2 genes and R-loop negative locus SNRPN gene with the primers listed in Table 1.

[1] = Body weight of xenograft mice (FIG. 2B); format: in vivo, athymic nude mice; conditions: IP; romidepsin 0.75 mg/kg, DMPatA 0.075 mg/kg
From the text: FIGS. 2A and 2B illustrate the results of a MIA PaCa-2 xenograft model of PDAC in male athymic nude mice. FIG. 2A compares tumor growth (mm^3) in mice treated with the indicated concentrations of combination, romidepsin and DMPatA using IP route and vehicles described in the materials and methods section below. FIG. 2B compares body weight (g) of mice treated with the combination and single agents following treatment. FIGS. 2C and 2D compare quantification of H3K9ac and c-MYC antibodies. Frozen sections from MIA PaCa-2 xenograft tumor tissues were subjected to immunohistochemical analysis using antibodies against H3K9ac, and c-MYC. Fluorescence images were captured using fluorescent microscopy and the fluorescent signal from H3K9ac and c-MYC antibodies were quantified. To quantify fluorescence intensity at least 500 cells per condition were measured for each antibody at 40× magnification. The median of the signal intensity is shown. Statistical significance was determined by one-way ANOVA using Tukey multiple comparisons test, ****p value<0.0001.
Animal studies were performed according to Institutional Animal Care and Use Committee (IACUC) protocol number AC-AABD2601. Following the establishment of initial dose levels for individual drugs, efficacy of the combination and single agents in a MIA PaCa-2 xenograft model was assessed at a tolerable dose and schedule. […]

SNRPN locus = test: DRIP-qPCR R-loop accumulation at negative locus SNRPN (FIG. 10A); format: cell-based; conditions: MIA PaCa-2, 6+3 hours
Protocol: as §1, §2, §3

SMILES: C/C=C1\NC(=O)[C@H]2CSSCC/C=C/[C@H](CC(=O)N[C@H](C(C)C)C(=O)N2)OC(=O)[C@H](C(C)C)NC1=O [romidepsin]
- R-loop accumulation (percent of input, DRIP-qPCR) (VGF and HBA2 loci): significant increase in the percent of input
- body weight vs vehicle [1]: neither the single agent nor the combination treatments had a significant impact on weight
- R-loop accumulation at SNRPN (SNRPN locus): no accumulation of R-loops
